Legend:
wheat plants [1] = assay: Wheat grain weight at the milky stages after Ethephon treatment; format: in vivo, wheat (Triticum turgidum var. 'Gdera'); conditions: for grain yield increase by antagonizing Ethephon: fresh weight basis
Method: (1) Abscission—This is a very sensitive model system for studying the effects of plant hormones. Ethylene induces the process of abscission, while auxin delays it. In the laboratory the experimental system is based on plant organ explants, which include the abscission zone. Abscission is induced by exposure to ethylene and at the termination of the experiment the number of abscised organs, usually either leaf blades or petioles are counted and the fraction of abscission is calculated. In the case of fruit, the decrease in fruit retention force is analyzed. In cotton, when WS-CPD (the ethylene-action antagonist herein disclosed) is tested, the whole plants or explants are pretreated by spraying with the antagonist, dissolved in a phosphate buffer solution (10-20 mM, pH 7.0) including 0.1% commercially available Kinetic™ as surfactant, and left to incubate for a predetermined time, usually between 6 and 24 h. The plants or explants are then further exposed for 24 h to ethylene gas (5 to 20 μL L^−1). The plants or explants are then ventilated and incubated for the required time under controlled conditions. At the end of the experiment the percentage of abscission is determined. (2) Chlorophyll degradation—This is a standard model for studying senescence. Plant material (whole plants, excised leaves or leaf discs) are pretreated. In cotton, tobacco and wheat, when WS-CPD is tested, the whole plants or explants are pretreated by spraying with the antagonist, dissolved in phosphate buffer solution (10-20 mM, pH 7.0) including 0.1% commercially available Kinetic™ surfactant, and left to incubate for a predetermined time, usually between 6 and 241. The plants or explants are then further exposed for 24 h to ethylene gas (1 to 100 μL L^−1), or sprayed with Ethephon™ (wheat; 250 to 750 μL L^−1). The plants or explants are then ventilated and incubated for the required time under controlled conditions. At the end of the experiment a dimethylsulfoxide (DMSO) extract of the plant tissue is prepared, and the chlorophyll content of the extract is determined by spectrophotometric analysis. The chlorophyll content is reported either on a fresh, dry weight basis, or on a surface area basis. (3) Epinasty—This is also one of the classical methods for studying ethylene effects in plants. The extent of ethylene-induced epinasty of leaves is determined by measuring the change of the angle between the petiole and the stem shoot or blade. After exposure of the intact plant to ethylene, the upright grown leaves bend downward. The increase in the angle values (degrees) between petiole and the stem is used as a measure of the effect of the ethylene. When WS-CPD is tested on cotton and wheat plants, the whole plants are pretreated by spraying with the antagonist dissolved in phosphate buffer solution (10-20 mM, pH 7.6) including 0.1% Kinetic™ as surfactant, and left to incubate for a predetermined time, usually between 6 and 24 h. The plants are then further exposed for 24 h to ethylene gas (cotton, 5 to 10 μL L^−1), or sprayed with Ethephon™ (wheat, 250 to 750 μL L^−1). The plants are then ventilated and incubated for the required time under controlled conditions. The epinastic effect is expressed by measuring the degree values of the downward curvature between the blade and petiole (cotton, FIGS. 1-3) or between the blade and the stem (wheat, FIGS. 31 and 32). (4) Wheat Grain yield—This is a common test of the effects of exposure of monocot plants either to environmental stresses such as drought that induce senescence by increasing endogenous ethylene production. Excessive internal or external ethylene will accelerate senescence which will lead to reduced grain yield. In this project the intact plants were grown in the greenhouse up to the spike hading at milky stage I and II. The plants were then sprayed with the dissolved WS-CPD in phosphate buffer solution (10 mM, pH 7.6) including 0.1% Kinetic™ as surfactant. Young Cotton Seedlings […]

wheat plants [2] = assay: Wheat grain yield at harvest, greenhouse, sandy soil, natural conditions; format: in vivo, wheat (Triticum turgidum var. 'Gdera')
pKa and ionisation state = format: physicochemical
From the text: The IR spectrum (FIG. 60), UV-VIS spectrum (FIG. 61), and potentiometric titration (FIG. 62) are all consistent with the structure given above for WS-CPD. The IR peak of WS-CPD at C1=1773 cm^−1, and the peak of the C═O stretch in the IR and the UV-VIS peak is λmax 206nm.
Thus, under the normal conditions of use, e.g., pH 7.6-7.8, more than 99% of the compound is present in the anion form. […] The XRD pattern was obtained in a Rigaku Ultima sealed tube theta-theta diffractometer operating at a power level of 1.6 kW, with a step size of 0.02°, angular range of 10-60°, and speed of 0.5°/min. Analysis of the XRD pattern was performed using the Jade 8 program (MDI, Inc.). From the diffraction pattern, it appears that the powdered material is not homogeneous, but rather that there appear to be three distinct structural forms present, namely, an amorphous form, a poor quality crystalline form, and a crystalline form. The presence of the amorphous form is indicated by the prominent diffuse peak centered at 2θ˜23°. Superimposed on this broad peak are a number of sharp peaks, indicating the presence of a crystalline form. […] The effective crystallite sizes of the crystalline form were calculated using the Scherrer formula and found to be in the range of 300-700 Å. […] The following volume fractions were measured: amorphous—57.5%; poorly crystalline—39.5%; crystalline—3%. […]

pKa (pKa and ionisation state; ambient temperature): > 4.5
fraction of the compound present in the anion form (pKa and ionisation state; pH 7.6-7.8): more than 99%
SMILES: O=C([O-])CCC1=CC1.[Na+] [WS-CPD, 3-cyclopropyl-1-enyl-propanoic sodium salt]
Ethephon-induced decrease of grain weight (wheat plants [1]; WS-CPD 135 μg mL^−1 pretreatment at milky stage I, both milky stages): prevented the decrease
overcoming the Ethephon reduction in grain weight (wheat plants [1]; WS-CPD 80 to 180 μg mL^−1): best results
grain yield increase by antagonizing Ethephon (wheat plants [1]; milky stage I): ca. 5%
grain yield increase by antagonizing Ethephon (wheat plants [1]; milky stage II): ca. 16%
effect of repeating sprays after stage II on yield (wheat plants [2]; WS-CPD 120 μg mL^−1, two to four sprays at 8 to 10 days intervals): no advantage
grains weighting less than 35 mg/grain in the spikes of the treated plants (wheat plants [2]; WS-CPD 120 μg mL^−1, untreated plants more than 30% below this weight): almost no grains
total yield increase (wheat plants [2]; one spray WS-CPD 120 μg mL^−1 at milky stage I, dry grain at harvest): ca. 18%

Reference: patent US9363996B2, “Compositions and method for blocking ethylene response in field crops using 3-(cy-clopropyl-l-enyl)-propanoic salt” (Yissum Research Development Company of the Hebrew …, priority 2009, dated 2016)
